Source: US20240329063A1, “METHOD FOR EVALUATING RESIDUAL PLATELET THROMBOTIC POTENTIAL IN PATIENTS UNDERGOING ANTIPLATELET TREATMENT” (Centro Cardiologico Monzino S.P.A., priority 2021, published 2024)

Experiments:
[1] = test system: TF; assay: ADP-induced TF expression on platelets, flow cytometry, in vitro antagonist inhibition curves; type: cell-based, human; conditions: ADP-stimulated platelets, spread as % CV, FIG. 1D-F
Method: (§1) The data obtained in patients without clopidogrel (No clopido) (n=39) are shown for comparison purposes. Panels C, D and E show the ADP concentration-response curves (black squares) and AR-C69931MX antagonist inhibition curves (white triangles) relating to TF, aGPIIbIIIa and P-selectin respectively. The EC50 of the agonist was calculated with a four-parameter logistic model, while the pA2s of the antagonist were calculated as described in Materials and Methods. The results are presented as percentage expression of the protein compared with baseline (s/b). The experiments were conducted at least three times. **p<0.01, ***p<0.001.
(§2) For the analysis of intracellular expression of TF, the cells were fixed for 2 hours with 1% paraformaldehyde, permeabilised for 10 min with an 0.1% solution of Triton X-100 PBS, and labelled for 15 min at room temperature in the dark with saturating concentrations of anti-TF and CD61 antibodies (PerCP; Becton Dickinson). […] All the data were analysed with Kaluza analysis software v1.5 (Beckman Coulter) and reported as percentage of positive cells or MFI (mean fluorescence intensity) of platelets positive to the activation marker.
(§3) A p-value of 0.05 was considered statistically significant. […] All curves shown are generated by informatics methods.

[2] = test system: aGPIIbIIIa; assay: ADP-induced aGPIIbIIIa expression (PAC1 binding) on platelets, flow cytometry, in vitro antagonist inhibition curves; type: cell-based, human; conditions: ADP-stimulated platelets, spread as % CV, FIG. 1D-F
Method: as §1, §2, §3

[3] = test system: P-selectin; assay: ADP-induced P-selectin expression on platelets, flow cytometry, in vitro antagonist inhibition curves; type: cell-based, human
Method: as §1, §2, §3

[4] = test system: TF; conditions: clopidogrel 75 mg/day, FIG. 1A
Method: (§4) The in vitro experiments were conducted on 10 healthy volunteers (n=5 males and n=5 females; average age 39±6) who had not taken antiplatelet medicaments in the 10 days before the blood sample was taken. The effect of clopidogrel on TF expression was evaluated on 193 patients suffering from coronary artery disease (CAD) with myocardial infarction with non-ST elevation. […] The clinical characteristics of the patients enrolled are set out in Table 1.
(§5) The exclusion criteria were: age >80 years, valvular heart disease, atrial fibrillation, thyrotoxicosis, history of haemorrhagic diathesis, platelet disorder or thrombocytopenia, anticoagulant or thrombolytic treatment. A subject with severe congenital P2Y12 deficiency (person) was also studied.
(§6) Whole blood (WB) samples were taken with a 19 gauge needle without venous stasis in tubes containing sodium citrate (0.129 M, 1/10 volume/volume) (Vacutainer, Becton Dickinson), discarding the first 4 ml. The blood samples were then processed within 15 minutes of sample-drawing. The WB was centrifuged (room temperature, without centrifuge brake) at 100 g for 10 minutes to isolate the platelets. The platelet-rich plasma (PRP) was transferred to a new test tube and analysed with the Sysmex XE-2100 Automated Hematology Analyzer to determine the platelet count, mean platelet volume (MPV), platelet distribution […] (PDW), platelet recovery (defined as the percentage of the platelet count in the PRP to 100% of the number of platelets in the WB), and leukocyte contamination. Only the platelet preparations free of leukocyte contamination and with platelet recovery >70% were used for the subsequent thrombin generation analysis.
(§7) Surface expression of platelet activation markers was analysed by flow cytometry as previously described (Brambilla M, et al., Arterioscler Thromb Vasc Biol. 2008;28 (5): 947-953). Briefly, the samples were incubated/labelled with saturating concentrations of mouse monoclonal antibodies recognizing human tissue factor (HTF1; Thermo Fisher), P-selectin (APC; Becton Dickinson), PAC1 (FITC; Becton Dickinson), CD36 (PE; Becton Dickinson) and CD154 (FITC; Becton Dickinson). For the analysis of intracellular expression of TF, the cells were fixed for 2 hours with 1% paraformaldehyde, permeabilised for 10 min with an 0.1% solution of Triton X-100 PBS, and labelled for 15 min at room temperature in the dark with saturating concentrations of anti-TF and CD61 antibodies (PerCP; Becton Dickinson).

[5] = test system: P-selectin; conditions: clopidogrel 75 mg/day; 10 μM ADP; all CAD patients, to the same extent regardless of the degree of VASP phosphorylation; FIG. 1C
Method: as §4, §5, §6, §7

[6] = test system: aGPIIbIIIa; conditions: clopidogrel 75 mg/day; 10 μM ADP; FIG. 1B
Method: as §4, §5, §6, §7

| SMILES | pA2 for inhibition of TF expression [1] | pA2 for inhibition of aGPIIbIIIa expression [2] | pA2 for inhibition of P-selectin expression ([3]; ADP-stimulated platelets, spread as % CV, FIG. 1D-F) | power (pA2) to inhibit P-selectin expression relative to that required to inhibit TF ([3]; P-selectin versus TF) | power (pA2) to inhibit P-selectin expression relative to that required to inhibit aGPIIbIIIa ([3]; P-selectin versus aGPIIbIIIa) | inhibition of TF exposed to stimulation with 10 μM ADP, poor responders versus good responders ([4]; patients with PRI >60% compared with PRI <60%) | inhibition of TF exposed to stimulation with 10 μM ADP, poor responders versus untreated subjects ([4]; patients with PRI >60% compared with subjects not treated with clopidogrel) | P-selectin expression [5] | expression of activated glycoprotein IIbIIIa measured by the PAC1 bond [6] |
| --- | --- | --- | --- | --- | --- | --- | --- | --- | --- |
| CSCCNc1nc(SCCC(F)(F)F)nc2c1ncn2[C@@H]1O[C@H](COP(=O)(O)OP(=O)(O)C(Cl)(Cl)P(=O)(O)O)[C@@H](O)[C@H]1O [AR-C69931MX] | 9.33±2.1 | 10.7±0.29 | 11.5±3.1 | 150 times | 6 times | – | – | – | – |
| COC(=O)[C@H](c1ccccc1Cl)N1CCc2sccc2C1 [clopidogrel] | – | – | – | – | – | significantly less than that measured in the good responders | not statistically different from that measured in the subjects not treated with clopidogrel | significantly inhibited | highest in the poor responders |
